{"source": "patent US8524291B2", "about": "“Anti-obesity product and its method of preparation” (Chongquing Institute of Ecological Materia Medica Co. Ltd., priority 2006, dated 2013)", "assay": "40-day study in ob/ob mice on high fat diet: body weight and fat, metabolic parameters, liver indicators", "format": "in vivo, C57 black ob/ob mice", "conditions": "day 43", "protocol": "Forty C57 black ob/ob mice were allocated to five groups of eight for study over 40 days as follows:\nHigh fat diet—no treatment;\nHigh fat diet—100 mg/kg/OD PYN22;\nHigh fat diet—300 mg/kg/OD PYN22; • High fat diet—3 mg/kg/OD Rosiglitazone (positive control).\nMice were weighed twice per week and food intake measured daily throughout the study. Any laxative effects of treatments were visually examined and recorded.\nOral glucose tolerance tests were conducted on Day 7, Day 21 and Day 35.\nEnergy expenditure was measured at Day 14.\nFasting plasma insulin and lipids were measured on Days 7, 21 and 35.\nThree days before sacrifice, 100 ul blood samples were taken from all animals to provide plasma glucose, insulin, free fatty acid, triglycerides, cholesterol and HDL-cholesterol.\nAt sacrifice, body mass and fat mass were calculated; the same parameters were also calculated for liver, heart and white adipose tissues."}
{"compound": "CN(CCOc1ccc(CC2SC(=O)NC2=O)cc1)c1ccccn1", "note": "(centres unmarked) [Rosiglitazone]", "values": [{"measurement": "actual liver weight (FIG. 11C)", "value": "no effect"}, {"measurement": "relative (% body weight) liver weight (FIG. 11D)", "value": "no effect"}]}
